The values that follow come from PubChem BioAssay AID200 (DTP/NCI, 2004).

In the test the test system is B6C3F1 mice, B16 melanoma ip, median survival T/C. In words: NCI In Vivo Anticancer Drug Screen. Data for tumor model B16 Melanoma (intraperitoneal) in B6C3F1 mice. The note with it: endpoint: median survival time, higher = longer survival. A digest of the protocol:
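Readout: survival or tumor size in treated mice relative to vehicle controls (T/C). Model uses transplantable tumors grown in mice.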

[1] abbreviates: dose: 12.5 mg/kg/injection, schedule: Q01DX009 (ip), vehicle: saline.
Where [2] appears, read: dose: 200.0 mg/kg/injection, schedule: Q01DX009 (ip), vehicle: saline.
[3] abbreviates: dose: 25.0 mg/kg/injection, schedule: Q01DX009 (ip), vehicle: saline with Tween-80.
[4] abbreviates: dose: 50.0 mg/kg/injection, schedule: Q01DX009 (ip), vehicle: saline with Tween-80.
The mark [5] stands for this setting: dose: 200.0 mg/kg/injection, schedule: Q01DX009 (ip), vehicle: Klucel (hydroxypropylcellulose) (HPC).

Molecules are shown by their SMILES. Several values for one entry are separate records, joined by “and”; a condition that tells them apart may be missing. Equal values may be shown once. Toxic doses and inconclusive results are not listed.

On to `Nc1nc(-c2cccc(S(=O)(=O)O)c2)c([N+](=O)[O-])c(=O)[nH]1`, for which the T/C runs as follows: (dose: 12.88 mg/kg/injection, schedule: Q01DX009 (ip), vehicle: saline) 99 % of control; (dose: 25.75 mg/kg/injection, schedule: Q01DX009 (ip), vehicle: saline) 96 % of control; (dose: 51.5 mg/kg/injection, schedule: Q01DX009 (ip), vehicle: saline) 109 % of control.

Turning to `Cc1cc(O)c2c(c1O)C(=O)C13C(=C2O)C(=O)C2C(O)C1C1C(O)C3C(=O)C3=C(O)c4c(O)cc(C)c(O)c4C(=O)C321` (configuration not stated), the T/C was 109 % of control (dose: 0.19 mg/kg/injection, schedule: Q01DX009 (ip), vehicle: saline with Tween-80); 124 % of control (dose: 0.2 mg/kg/injection, schedule: Q01DX009 (ip), vehicle: saline with Tween-80); 114 % of control and 106 % of control (dose: 0.39 mg/kg/injection, schedule: Q01DX009 (ip), vehicle: saline with Tween-80); 117 % of control (dose: 0.78 mg/kg/injection, schedule: Q01DX009 (ip), vehicle: saline with Tween-80); 117 % of control (dose: 1.56 mg/kg/injection, schedule: Q01DX009 (ip), vehicle: saline with Tween-80).

Take `Cc1c2ccncc2c(COC2OC(CO)C(O)C2O)c2c3ccccc3n(C)c12` (configuration not stated): the T/C is, setting by setting: under setting [1], 123 % of control; (dose: 100.0 mg/kg/injection, schedule: Q01DX009 (ip), vehicle: saline) 98 % of control; under setting [2], 121 % of control.

For the molecule `COc1cc(/C=C/[N+](=O)[O-])cc(Br)c1OC`, the T/C (dose: 0.75 mg/kg/injection, schedule: Q01DX009 (ip), vehicle: saline with Tween-80) is 102 % of control; the T/C (dose: 1.5 mg/kg/injection, schedule: Q01DX009 (ip), vehicle: saline with Tween-80) is 112 % of control; the T/C (dose: 3.0 mg/kg/injection, schedule: Q01DX009 (ip), vehicle: saline with Tween-80) was 98 % of control; the T/C (dose: 6.0 mg/kg/injection, schedule: Q01DX009 (ip), vehicle: saline with Tween-80) was 97 % of control; the T/C (dose: 6.25 mg/kg/injection, schedule: Q01DX009 (ip), vehicle: saline with Tween-80) is 91 % of control; the T/C (dose: 12.0 mg/kg/injection, schedule: Q01DX009 (ip), vehicle: saline with Tween-80) was 93 % of control.

With `S=C(S)N1CCCNCC1` (tested in a mixture with another compound), the T/C runs as follows: (dose: 12.5 mg/kg/injection, schedule: Q01DX009 (ip), vehicle: saline with Tween-80) 107 % of control; under setting [3], 100 % of control; under setting [4], 92 % of control.

On to `O=NN(CCCl)C(=O)NC1CCC(=O)NC1=O` (configuration not stated), for which the T/C runs as follows: (dose: 0.8 mg/kg/injection, schedule: Q01DX005 (ip), vehicle: saline + alcohol) 118 % of control; (dose: 0.8 mg/kg/injection, schedule: Q01DX005 (iv), vehicle: saline + alcohol) 96 % of control; (dose: 1.6 mg/kg/injection, schedule: Q01DX005 (ip), vehicle: saline + alcohol) 155 % of control; (dose: 2.0 mg/kg/injection, schedule: Q01DX005 (ip), vehicle: saline + alcohol) 175 % of control; (dose: 2.0 mg/kg/injection, schedule: Q01DX005 (iv), vehicle: saline + alcohol) 102 % of control; (dose: 3.2 mg/kg/injection, schedule: Q01DX005 (ip), vehicle: saline + alcohol) 197 % of control. Moreover, the T/C (dose: 3.2 mg/kg/injection, schedule: Q01DX005 (iv), vehicle: saline + alcohol) was 151 % of control; the T/C (dose: 4.0 mg/kg/injection, schedule: Q01DX001 (ip), vehicle: saline + alcohol) was 195 % of control; the T/C (dose: 4.0 mg/kg/injection, schedule: Q01DX001 (iv), vehicle: saline + alcohol) was 124 % of control; the T/C (dose: 4.0 mg/kg/injection, schedule: Q01DX005 (ip), vehicle: saline + alcohol) was 300 % of control; the T/C (dose: 4.0 mg/kg/injection, schedule: Q01DX005 (iv), vehicle: saline + alcohol) is 180 % of control; the T/C (dose: 6.4 mg/kg/injection, schedule: Q01DX005 (ip), vehicle: saline + alcohol) was 275 % of control. The T/C runs as follows: (dose: 8.0 mg/kg/injection, schedule: Q01DX001 (ip), vehicle: saline + alcohol) 200 % of control and 291 % of control; (dose: 8.0 mg/kg/injection, schedule: Q01DX001 (iv), vehicle: saline + alcohol) 162 % of control; (dose: 8.0 mg/kg/injection, schedule: Q01DX005 (ip), vehicle: saline + alcohol) 105 % of control; (dose: 8.0 mg/kg/injection, schedule: Q01DX005 (iv), vehicle: saline + alcohol) 150 % of control; (dose: 8.0 mg/kg/injection, schedule: Q01DX005 (oral), vehicle: saline + alcohol) 210 % of control; (dose: 16.0 mg/kg/injection, schedule: Q01DX001 (ip), vehicle: saline + alcohol) 255 % of control and 317 % of control. Further, the T/C (dose: 16.0 mg/kg/injection, schedule: Q01DX001 (iv), vehicle: saline + alcohol) is 194 % of control and 216 % of control; the T/C (dose: 16.0 mg/kg/injection, schedule: Q01DX001 (oral), vehicle: saline + alcohol) is 183 % of control; the T/C (dose: 32.0 mg/kg/injection, schedule: Q01DX001 (oral), vehicle: saline + alcohol) was 89 % of control.

As for `Nc1nc(-c2cccc([N+](=O)[O-])c2)c(Br)c(=O)[nH]1`, the T/C is 115 % of control under setting [3] and 122 % of control under setting [4].

On to `CC1=CC2c3cccc4[nH]cc(c34)CC2N(C)C1` (configuration not stated), for which the T/C runs as follows: (dose: 2.5 mg/kg/injection, schedule: Q01DX009 (ip), vehicle: suspension in saline) 103 % of control; (dose: 5.0 mg/kg/injection, schedule: Q01DX009 (ip), vehicle: suspension in saline) 101 % of control; (dose: 10.0 mg/kg/injection, schedule: Q01DX009 (ip), vehicle: suspension in saline) 101 % of control; (dose: 20.0 mg/kg/injection, schedule: Q01DX009 (ip), vehicle: suspension in saline) 95 % of control.

Turning to `OC(CCl)CN1CC[N+]2(CC1)CC[N+]1(CCN(CC(O)CCl)CC1)CC2` (configuration not stated), the T/C reads like this: (dose: 4.68 mg/kg/injection, schedule: Q01DX009 (ip), vehicle: saline) 118 % of control; (dose: 9.37 mg/kg/injection, schedule: Q01DX009 (ip), vehicle: saline) 106 % of control; under setting [1], 172 % of control; (dose: 18.75 mg/kg/injection, schedule: Q01DX009 (ip), vehicle: saline) 98 % of control; (dose: 25.0 mg/kg/injection, schedule: Q01DX009 (ip), vehicle: saline) 183 % of control; (dose: 37.5 mg/kg/injection, schedule: Q01DX009 (ip), vehicle: saline) 106 % of control.

Take `CC(C)NC(=O)N(CCCCBr)N=O`: the T/C (dose: 6.25 mg/kg/injection, schedule: Q01DX009 (ip), vehicle: Klucel (hydroxypropylcellulose) (HPC)) was 98 % of control; the T/C (dose: 12.0 mg/kg/injection, schedule: Q01DX009 (ip), vehicle: Klucel (hydroxypropylcellulose) (HPC)) was 118 % of control; the T/C (dose: 12.5 mg/kg/injection, schedule: Q01DX009 (ip), vehicle: Klucel (hydroxypropylcellulose) (HPC)) is 98 % of control and 102 % of control; the T/C (dose: 25.0 mg/kg/injection, schedule: Q01DX009 (ip), vehicle: Klucel (hydroxypropylcellulose) (HPC)) was 99 % of control and 102 % of control; the T/C (dose: 50.0 mg/kg/injection, schedule: Q01DX009 (ip), vehicle: Klucel (hydroxypropylcellulose) (HPC)) is 116 % of control and 106 % of control; the T/C (dose: 100.0 mg/kg/injection, schedule: Q01DX009 (ip), vehicle: Klucel (hydroxypropylcellulose) (HPC)) was 88 % of control and 96 % of control. Besides, under setting [5], the T/C was 102 % of control.

Consider `Cn1nnc2c1C(=O)c1ccccc1C2=O`, for which the T/C under setting [4] is 88 % of control; the T/C (dose: 100.0 mg/kg/injection, schedule: Q01DX009 (ip), vehicle: saline with Tween-80) was 90 % of control; the T/C (dose: 200.0 mg/kg/injection, schedule: Q01DX009 (ip), vehicle: saline with Tween-80) is 89 % of control.

Take `NC(CO)(CO)CO`: the T/C runs as follows: under setting [2], 104 % of control; (dose: 200.0 mg/kg/injection, schedule: Q12HX018 (ip), vehicle: saline) 102 % of control; (dose: 400.0 mg/kg/injection, schedule: Q01DX009 (ip), vehicle: saline) 102 % of control; (dose: 400.0 mg/kg/injection, schedule: Q12HX018 (ip), vehicle: saline) 102 % of control; (dose: 800.0 mg/kg/injection, schedule: Q01DX009 (ip), vehicle: saline) 98 % of control; (dose: 800.0 mg/kg/injection, schedule: Q12HX018 (ip), vehicle: saline) 106 % of control. The T/C by setting is: (dose: 1600.0 mg/kg/injection, schedule: Q01DX009 (ip), vehicle: saline) 98 % of control; (dose: 1600.0 mg/kg/injection, schedule: Q12HX018 (ip), vehicle: saline) 101 % of control.

Consider `CCCCC(NC(=O)OCc1ccccc1)C(=O)NC(Cc1c[nH]c2ccccc12)C(=O)O` (configuration not stated), for which the T/C under setting [5] was 103 % of control.
